Converted amounts (≈) assume the structure as drawn. Read-outs that look alike come from different tables or passages of the source. Where a SMILES comes first, the peptide text is derived from it. Where no end group is shown, it is not given here.
Experiments:
S. aureus USA300 LAC = test: microbe, parasite or virus in culture; type: cell-based, Staphylococcus aureus; details: for MIC: read-out: Antimicrobial activity (MIC)
How it was run: (§1)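 Broth microdilution with twofold peptide dilutions, using exponential-phase bacteria at about 10^5 CFU/mL in MHB, incubated overnight at 37 °C and read at OD600. MIC, reported as a range, is the peptide concentration with no growth. Some tests used diluted MHB/TSB/LB, adjusted pH, or added NaCl or human serum.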

S. epidermidis 1457 = test: microbe, parasite or virus in culture; type: cell-based, Staphylococcus epidermidis
How it was run: (§2)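 Peptides twofold serially diluted against exponential-phase resistant clinical isolates at ~10^5 CFU/mL in MHB (also diluted MHB, TSB or LB in one protocol), CLSI-based broth microdilution. Incubated overnight at 37° C., OD 600 nm read; MIC taken as lowest concentration without growth, reported as ranges.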

K. pneumoniae E406-17 = type: cell-based, Klebsiella pneumoniae
Method: The following resistant bacterial clinical strains were used in this study: S. aureus USA300 LAC, S. epidermidis 1457, E. coli E423-17, P. aeruginosa E411-17, K. pneumoniae E406-17, and A. baumannii B28-16. While the S. aureus USA300 strain is methicillin-resistant, most of the Gram-negative bacteria contain extended-spectrum beta-lactamase and are resistant to beta-lactam antibiotics. Peptide activity against bacteria was tested using an established lab protocol (Mishra, et al. (2017) Acta Biomater., 49:316-328). In brief, a peptide concentration gradient with twofold dilution was made in the 96-well polystyrene microplate at 10 μL per well. Bacteria were grown to the exponential phase (i.e., optical density at 600 nm≈0.5), diluted to ˜10^5 CFU/mL in different percentages of MHB, TSB, or LB, and partitioned into the 96-well microplate at 90 μL per well. […] They were diluted with autoclaved distilled water to obtain different percentages. The microplates were incubated at 37° C. overnight and read on a ChroMate™ 4300 microplate reader at 600 nm (GMI, Ramsey, MN). The peptide concentration in the wells without bacterial growth is the MIC. As is the convention, MIC values were represented as ranges.
(§3) Peptide activity against bacteria were tested using the CLSI standard procedure with minor modifications (Clinical and Laboratory Standards Institute (2018) Performance standards for antimicrobial susceptibility testing, 9th ed.; Mishra, et al. (2019) Proc. Natl. Acad. Sci., 116(27):13517-13522). In brief, a peptide concentration gradient with twofold dilution was made in the 96-well polystyrene microplate at 10 μL per well. Bacteria were grown to the exponential phase (i.e., optical density at 600 nm≈0.5), diluted to ˜10^5 CFU/mL in MHB, and partitioned into the 96-well microplate at 90 μL per well. The microplates were incubated at 37° C. overnight and read on a ChroMate® 4300 Microplate Reader at 600 nm (GMI, Ramsey, MN). The peptide concentration in the wells without bacterial growth is the minimal inhibitory concentration (MIC). As the convention, MIC values were represented as ranges.

A. baumannii B28-16 = type: cell-based, Acinetobacter baumannii
How it was run: as §2

P. aeruginosa E411-17 [1] = test: microbe, parasite or virus in culture; type: cell-based, Pseudomonas aeruginosa; details: for MIC: read-out: Antimicrobial activity (MIC)
How it was run: as §1

E. coli E416-17 = type: cell-based, Escherichia coli
Method: as §3

human red blood cells = test: Hemolytic assay; type: cell-based
Method: The hemolytic effects of peptides were evaluated using a method with minor modifications (Lakshmaiah Narayana, et al. (2021) ACS Infect. Dis., 7:1795-1808). Human red blood cells (hRBCs, UNMC Blood Bank) were washed (3×) with blood bank saline (isotonic solution 0.90% w/v, Fisher). Cells were diluted to 2% using the saline solution, and aliquots of 90 μL were added to a 96-well polystyrene microplate containing 10 μL of serially diluted peptide solutions. After incubation at 37° C. for 1 hour, plates were centrifuged at 500 g for 5 minutes. Aliquots of the supernatant were transferred to a 96-well microplate. The amount of hemoglobin released was measured at 545 nm by using a ChroMate™ microplate reader. […] HC50 is defined as the concentration of the peptide that caused 50% lysis.
The hemolytic effects of peptides were evaluated (Narayana, et al. (2020) Proc. Natl. Acad. Sci., 117(32):19446-9454). In brief, human red blood cells (UNMC Blood Bank) were washed (3×) and diluted to 2% using the saline solution. Aliquots of 90 μL were mixed with 10 μL of serially diluted peptide solutions. After incubation at 37° C. for 1 hour, plates were centrifuged at 500 g for 5 minutes and aliquots of the supernatant were transferred to a new 96-well microplate to measure the amount of hemoglobin released at 545 nm (relative to 1% Triton® X-100) using a ChroMate® Microplate Reader.

trypsin = details: peptide:protease 40:1, 37° C., 1 hour
Method: A solution of peptide/protease (40:1 molar ratio) was made in phosphate-buffered saline (PBS; pH 7.1, Gibco, NY) and incubated at 37° C. for 1 hour. As controls, peptides without proteases were also incubated in the same manner. Then, aliquots of 10 μL were transferred to a 96-well polystyrene microplate and mixed with the exponential-phase MRSA USA300 culture as performed in the antibacterial activity assays above.

chymotrypsin = biological target: T1, chymotrypsin (Bos taurus, UniProt P00766); type: in vitro ADME, mammalian
T1 construct: purchased Thermo Fisher Scientific

pepsin = biological target: T2, pepsin (Sus scrofa, UniProt P00791); type: in vitro ADME, mammalian
T2 construct: purchased Thermo Fisher Scientific
T2 sequence (P00791 60-385): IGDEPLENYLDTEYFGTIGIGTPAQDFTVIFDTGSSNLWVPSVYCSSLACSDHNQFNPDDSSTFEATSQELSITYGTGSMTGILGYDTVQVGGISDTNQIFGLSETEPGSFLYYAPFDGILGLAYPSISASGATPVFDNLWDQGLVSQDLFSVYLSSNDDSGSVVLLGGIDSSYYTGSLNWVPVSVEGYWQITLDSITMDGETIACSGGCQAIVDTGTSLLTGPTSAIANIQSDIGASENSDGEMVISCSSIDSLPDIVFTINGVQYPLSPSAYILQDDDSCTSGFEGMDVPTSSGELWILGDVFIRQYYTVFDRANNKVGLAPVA

E. coli E423-17 [2] = type: cell-based, Escherichia coli
P. aeruginosa E411-17 [3] = test: Killing kinetics; type: cell-based, Pseudomonas aeruginosa; details: 4×MIC
Method: For bacterial killing kinetics study, MRSA USA300 and P. aeruginosa E411-17 was grown to the exponential phase (OD600˜0.3) in MHB. The culture was diluted to OD600 0.001 (˜10^5 CFU/mL). One milliliter of bacterial suspension was then mixed with the peptide, colistin or daptomycin at 4×MIC and incubated at 37° C. After 15, 30, 60, 90, and 120 minutes incubation, 50 μL was taken and serially diluted with 1×PBS. Then, 50 μL of the diluted suspension was plated on Mannitol Salt Agar (MRSA USA300) or Cetrimide Agar (P. aeruginosa E411-17) plates (NEOGEN, MI). The plates were incubated overnight at 37° C. for bacterial CFU count the next day.

E. coli E423-17 [4] = test: Membrane permeabilization (propidium iodide); type: cell-based, Escherichia coli; details: Example 1, 1×MIC
E. coli E423-17 [5] = type: cell-based, Escherichia coli; details: DMEM

| Compound | Minimal inhibitory concentration (MIC) S. aureus USA300 (S. aureus USA300 LAC) | Minimal inhibitory concentration (MIC) S. epidermidis 1457 (S. epidermidis 1457) | Minimal inhibitory concentration (MIC) K. pneumoniae E406-17 (K. pneumoniae E406-17) | Minimal inhibitory concentration (MIC) A. baumannii B28-16 (A. baumannii B28-16) | Minimal inhibitory concentration (MIC) P. aeruginosa E411-17 (P. aeruginosa E411-17 [1]) | Minimal inhibitory concentration (MIC) E. coli E416-17 (E. coli E416-17) | HC10-based therapeutic index (HC10/MIC) (human red blood cells) | Hemolysis (HC10), 10% hemolytic concentration (human red blood cells) | Hemolysis (HC50), 50% hemolytic concentration (human red blood cells) | further results |
| --- | --- | --- | --- | --- | --- | --- | --- | --- | --- | --- |
| N=C(N)NCCC[C@H](NC(=O)[C@@H](N)CCCCN)C(=O)N[C@@H](Cc1c[nH]c2ccccc12)C(=O)N[C@@H](Cc1ccc(-c2ccccc2)cc1)C(=O)N[C@@H](CCC(N)=O)C(=O)N[C@@H](Cc1c[nH]c2ccccc12)C(=O)N[C@@H](Cc1ccc(-c2ccccc2)cc1)C(=O)N[C@@H](CCCCN)C(N)=O [Bip-KR-8+] (HELM PEPTIDE1{K.R.W.[O=C([C@H](Cc1ccc(-c2ccccc2)cc1)N[*:1])[*:2]].Q.W.[O=C([C@H](Cc1ccc(-c2ccccc2)cc1)N[*:1])[*:2]].K.[am]}$$$$V2.0) | 4 µM (≈ 5.51 µg/mL) | 4 µM (≈ 5.51 µg/mL) | >32 µM | 32 µM (≈ 44.1 µg/mL) | 16 to 32 µM | 16 µM (≈ 22 µg/mL) | ~1 | 15 µM | > 200 µM | – |
| CC(C)C[C@H](N)C(=O)N[C@@H](Cc1c[nH]c2ccccc12)C(=O)NCC(=O)N[C@@H](CCCNC(=N)N)C(=O)N[C@@H](Cc1ccccc1)C(=O)N[C@@H](Cc1ccccc1)C(=O)N[C@@H](CCCNC(=N)N)C(=O)N[C@@H](CCCCN)C(=O)N[C@@H](Cc1ccc(-c2ccccc2)cc1)C(=O)N[C@@H](CCCCN)C(N)=O [Bip-LL-10+] (HELM PEPTIDE1{L.W.G.R.F.F.R.K.[O=C([C@H](Cc1ccc(-c2ccccc2)cc1)N[*:1])[*:2]].K.[am]}$$$$V2.0) | 2 to 4 µM | 4 µM (≈ 5.84 µg/mL) | >32 µM | 8 µM (≈ 11.7 µg/mL) | 4 µM (≈ 5.84 µg/mL) | 4 µM (≈ 5.84 µg/mL) | 25 | 100 µM | > 200 µM | – |
| CC(C)C[C@H](NC(=O)[C@H](Cc1ccccc1)NC(=O)[C@H](CCCNC(=N)N)NC(=O)[C@H](CCCCN)NC(=O)[C@H](Cc1ccc(-c2ccccc2)cc1)NC(=O)[C@@H](N)CCCNC(=N)N)C(=O)N[C@@H](CCCNC(=N)N)C(=O)N[C@@H](CC(N)=O)C(=O)N[C@@H](Cc1ccc(-c2ccccc2)cc1)C(=O)N[C@H](C(N)=O)C(C)C [Bip-RIK-10+] (HELM PEPTIDE1{R.[O=C([C@H](Cc1ccc(-c2ccccc2)cc1)N[*:1])[*:2]].K.R.F.L.R.N.[O=C([C@H](Cc1ccc(-c2ccccc2)cc1)N[*:1])[*:2]].V.[am]}$$$$V2.0) | 1 µM (≈ 1.53 µg/mL) | 2 µM (≈ 3.07 µg/mL) | 2 to 4 µM | 2 to 4 µM | 2 µM (≈ 3.07 µg/mL) | 2 µM (≈ 3.07 µg/mL) | <4 | – | ~30 µM | Hemolysis (HC10), 10% hemolytic concentration (human red blood cells; red cells of human): < 8 µM |
| N=C(N)NCCC[C@@H](N)C(=O)N[C@H](CCCNC(=N)N)C(=O)N[C@H](Cc1c[nH]c2ccccc12)C(=O)N[C@H](Cc1c[nH]c2ccccc12)C(=O)N[C@H](CCCNC(=N)N)C(=O)N[C@H](Cc1c[nH]c2ccccc12)C(=O)N[C@H](Cc1c[nH]c2ccccc12)C(=O)N[C@H](CCCNC(=N)N)C(N)=O [LL-37mini (D-form)] (HELM PEPTIDE1{[dR].[dR].[dW].[dW].[dR].[dW].[dW].[dR].[am]}$$$$V2.0) | – | – | – | – | – | – | – | – | – | activity after protease incubation (trypsin): remained active; activity after protease incubation (chymotrypsin): remained active; activity after protease incubation (pepsin): retained antibacterial activity |
| Colistin [reference compound] | – | – | – | – | – | – | – | – | – | MIC (S. aureus USA300 LAC; Human serum 5%): >8 µM; MIC (S. aureus USA300 LAC; Human serum 10%): >8 µM; MIC (S. aureus USA300 LAC; NaCl (150 mM)): >8 µM; MIC (S. aureus USA300 LAC; pH 6.21): >8 µM; MIC (S. aureus USA300 LAC; pH 7.22): >8 µM; MIC (S. aureus USA300 LAC; pH 8.13): >8 µM; Antimicrobial activity (MIC) E. coli E423-17 (E. coli E423-17 [2]; MHB, Table 8): 1 to 2 µM; Antimicrobial activity (MIC) A. baumannii B28-16 (A. baumannii B28-16; MHB, Table 8): 2 µM; Antimicrobial activity (MIC) (P. aeruginosa E411-17 [1]; Human serum 5%): 1 to 2 µM; MIC (P. aeruginosa E411-17 [1]; Human serum 10%): 2 µM; Antimicrobial activity (MIC) P. aeruginosa E411-17 (P. aeruginosa E411-17 [1]; MHB, Table 8): 1 to 2 µM; MIC (P. aeruginosa E411-17 [1]; NaCl (150 mM)): 2 µM; MIC (P. aeruginosa E411-17 [1]; pH 6.21): 2 µM; Antimicrobial activity (MIC) (P. aeruginosa E411-17 [1]; pH 7.22): 1 to 2 µM; Antimicrobial activity (MIC) (P. aeruginosa E411-17 [1]; pH 8.13): 1 to 2 µM; hemolysis (human red blood cells; at 400 μM): did not lyse human red blood cells even at 400 μM; time to kill (P. aeruginosa E411-17 [3]): 30 min; membrane permeabilization (E. coli E423-17 [4]): powerful membrane permeator |
| RIKDFLRNLV-NH2 (C-terminus assumed) [RIK-10] | – | – | – | – | – | – | – | – | – | Antimicrobial activity (MIC) (S. aureus USA300 LAC; MHB 12.5%): active; Antimicrobial activity (MIC) (E. coli E423-17 [2]; E423-17): 32 to 64 µM; Antimicrobial activity (MIC) (E. coli E423-17 [2]; MHB 100%): 16 µM; Antimicrobial activity (MIC) (E. coli E423-17 [5]): 8 µM |
